Measured values from BindingDB's records for patent US10081629 (Jiangsu Hengrui Medicine, 2018).

Target: T1, Prostaglandin E synthase (Homo sapiens, UniProt O14684)
T1 sequence (O14684 whole entry): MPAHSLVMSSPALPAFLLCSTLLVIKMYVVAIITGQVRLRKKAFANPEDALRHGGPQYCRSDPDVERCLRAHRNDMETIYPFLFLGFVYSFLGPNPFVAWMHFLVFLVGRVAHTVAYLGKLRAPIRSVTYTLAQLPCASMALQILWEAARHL
Test: mPGES1 enzyme assay
Method: mPGES1 was diluted with assay buffer and added into plate at 49 μL/well supplemented with 1 μL of compound (the final concentration of each compound at seven gradient concentrations was 10000 nM, 1000 nM, 100 nM, 10 nM, 1 nM, 0.1 nM and 0.01 nM). […] Then, each well was added with 53.8 μL of 6 mg/mL SnCl2 to quench the reaction. The sample was diluted with dilute buffer at 1:400. 10 μl of diluted sample, 5 μL PGE2-d2 and 5 μL anti-PGE2 Cryptate were added to a black 384-well plate, and incubated at 4° C. overnight. HTRF was determined using Flexstation, and the IC50 of the compounds was obtained by data processing software.

An IC50 of 13.4 nM was found for `COCCn1c(C2=CC=C(C(F)(F)F)CC2)cc2cc(NC(=O)c3cc(CNC(=O)C(C)(C)F)cnc3C(F)F)ccc21` [US10081629, Example 27] in this work.
